Test results from paper PMC6979384, “Characterization of the plant homeodomain (PHD) reader family for their histone tail interactions” (Epigenetics & Chromatin, 2020).

Experiments:
Assay in all cases: Histone peptide microarray
Type in all cases: binding, human
DPF2 (PPC2W2) = details: DPF2 (PPC2W2); sheet "Array Heatmap"; each array performed twice, total n = 4
Method in brief: (§1)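 Using an optimized microarray protocol, purified GST-tagged PHD fingers were incubated at 0.5 μM on 293 histone peptides with single or multiple modifications, and array signal was recorded as the average of 4 replicates.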

AIRE (PP) = details: AIRE (PP); sheet "Array Heatmap"; each array performed twice, total n = 4
Method in brief: as §1

KDM7A = details: KDM7A; sheet "Array Heatmap"; each array performed twice, total n = 4
Method in brief: as §1

KDM5B (3) = details: KDM5B (3); sheet "Array Heatmap"; each array performed twice, total n = 4
Method in brief: as §1

PHF13 = details: PHF13; sheet "Array Heatmap"; each array performed twice, total n = 4
Method in brief: as §1

CHD5 (PCC) = details: CHD5 (PCC); sheet "Array Heatmap"; each array performed twice, total n = 4
Method in brief: as §1

PHRF1 (RP) = details: PHRF1 (RP); sheet "Array Heatmap"; each array performed twice, total n = 4
Method in brief: as §1

TAF3 = details: TAF3; sheet "Array Heatmap"; each array performed twice, total n = 4
Method in brief: as §1

SP140L = details: SP140L; sheet "Array Heatmap"; each array performed twice, total n = 4
Method in brief: as §1

ING3 = details: ING3; sheet "Array Heatmap"; each array performed twice, total n = 4
Method in brief: as §1

DIDO1 = details: DIDO1; sheet "Array Heatmap"; each array performed twice, total n = 4
Method in brief: as §1

KDM5A (3) = details: KDM5A (3); sheet "Array Heatmap"; each array performed twice, total n = 4
Method in brief: as §1

MLL5 = details: MLL5; sheet "Array Heatmap"; each array performed twice, total n = 4
Method in brief: as §1

BPTF (PB) = details: BPTF (PB); sheet "Array Heatmap"; each array performed twice, total n = 4
Method in brief: as §1

PHF2 = details: PHF2; sheet "Array Heatmap"; each array performed twice, total n = 4
Method in brief: as §1

KDM5A (1) = details: KDM5A (1); sheet "Array Heatmap"; each array performed twice, total n = 4
Method in brief: as §1

PHF8 = details: PHF8; sheet "Array Heatmap"; each array performed twice, total n = 4
Method in brief: as §1

PHF21A = details: PHF21A; sheet "Array Heatmap"; each array performed twice, total n = 4
Method in brief: as §1

ING2 = details: ING2; sheet "Array Heatmap"; each array performed twice, total n = 4
Method in brief: as §1

CHD4 (PPCC) = details: CHD4 (PPCC); sheet "Array Heatmap"; each array performed twice, total n = 4
Method in brief: as §1

RAG2 = details: RAG2; sheet "Array Heatmap"; each array performed twice, total n = 4
Method in brief: as §1

ING5 = details: ING5; sheet "Array Heatmap"; each array performed twice, total n = 4
Method in brief: as §1

MORC3 (CW) = details: MORC3 (CW); sheet "Array Heatmap"; each array performed twice, total n = 4
Method in brief: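 Steps: express and purify GST-tagged PHD reader; incubate 0.5 μM protein on a peptide microarray (293 histone peptides, single or combined PTMs) following an optimized protocol; average signal across 4 replicates.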

PHF23 = details: PHF23; sheet "Array Heatmap"; each array performed twice, total n = 4
Method in brief: as §1

KDM5B (1) = details: KDM5B (1); sheet "Array Heatmap"; each array performed twice, total n = 4
Method in brief: as §1

ING1 = details: ING1; sheet "Array Heatmap"; each array performed twice, total n = 4
Method in brief: as §1

CHD5 (PPCC) = details: CHD5 (PPCC); sheet "Array Heatmap"; each array performed twice, total n = 4
Method in brief: as §1

TRIM66 (PB) = details: TRIM66 (PB); sheet "Array Heatmap"; each array performed twice, total n = 4
Method in brief: as §1

KDM4C (TTP) = details: KDM4C (TTP); sheet "Array Heatmap"; each array performed twice, total n = 4
Method in brief: as §1

BAZ2B = details: BAZ2B; sheet "Array Heatmap"; each array performed twice, total n = 4
Method in brief: as §1

ING4 = details: ING4; sheet "Array Heatmap"; each array performed twice, total n = 4
Method in brief: as §1

| Substance | Array Heatmap value (peptide array signal) (DPF2 (PPC2W2)) | Array Heatmap value (peptide array signal) (AIRE (PP)) | Array Heatmap value (peptide array signal) (KDM7A) | Array Heatmap value (peptide array signal) (KDM5B (3)) | Array Heatmap value (peptide array signal) (PHF13) | Array Heatmap value (peptide array signal) (CHD5 (PCC)) | Array Heatmap value (peptide array signal) (PHRF1 (RP)) | Array Heatmap value (peptide array signal) (TAF3) | Array Heatmap value (peptide array signal) (SP140L) | Array Heatmap value (peptide array signal) (ING3) | Array Heatmap value (peptide array signal) (DIDO1) | Array Heatmap value (peptide array signal) (KDM5A (3)) | Array Heatmap value (peptide array signal) (MLL5) | Array Heatmap value (peptide array signal) (BPTF (PB)) | Array Heatmap value (peptide array signal) (PHF2) | Array Heatmap value (peptide array signal) (KDM5A (1)) | Array Heatmap value (peptide array signal) (PHF8) | Array Heatmap value (peptide array signal) (PHF21A) | Array Heatmap value (peptide array signal) (ING2) | Array Heatmap value (peptide array signal) (CHD4 (PPCC)) | also measured |
| --- | --- | --- | --- | --- | --- | --- | --- | --- | --- | --- | --- | --- | --- | --- | --- | --- | --- | --- | --- | --- | --- |
| H4K5butK8butK12but: H4 1-23 | 0.6505 | 0.3828 | 0.3032 | 0.4196 | 0.5714 | 0.661 | 0.4335 | 0.2569 | 0.3551 | 0.4441 | 0.6712 | 0.4238 | 0.5293 | 0.3272 | 0.5429 | 0.419 | 0.3282 | 0.3738 | 0.5892 | 0.5302 | Array Heatmap value (peptide array signal) (RAG2): 0.2246; Array Heatmap value (peptide array signal) (ING5): 0.3275; Array Heatmap value (peptide array signal) (MORC3 (CW)): 0.3355; Array Heatmap value (peptide array signal) (PHF23): 0.5206; Array Heatmap value (peptide array signal) (KDM5B (1)): 0.5776; Array Heatmap value (peptide array signal) (ING1): 0.5532; Array Heatmap value (peptide array signal) (CHD5 (PPCC)): 0.5134; Array Heatmap value (peptide array signal) (TRIM66 (PB)): 0.5547; Array Heatmap value (peptide array signal) (KDM4C (TTP)): 0.4273; Array Heatmap value (peptide array signal) (BAZ2B): 0.414; Array Heatmap value (peptide array signal) (ING4): 0.4352 |
| H4K5crK8crK12cr: H4 1-23 | 0.6037 | 0.3482 | 0.2744 | 0.4017 | 0.5013 | 0.6269 | 0.3292 | 0.2134 | 0.3203 | 0.3926 | 0.571 | 0.3558 | 0.4572 | 0.277 | 0.4485 | 0.3568 | 0.292 | 0.3861 | 0.5899 | 0.5037 | Array Heatmap value (peptide array signal) (RAG2): 0.2029; Array Heatmap value (peptide array signal) (ING5): 0.2562; Array Heatmap value (peptide array signal) (MORC3 (CW)): 0.2832; Array Heatmap value (peptide array signal) (PHF23): 0.4763; Array Heatmap value (peptide array signal) (KDM5B (1)): 0.5237; Array Heatmap value (peptide array signal) (ING1): 0.4798; Array Heatmap value (peptide array signal) (CHD5 (PPCC)): 0.4173; Array Heatmap value (peptide array signal) (TRIM66 (PB)): 0.525; Array Heatmap value (peptide array signal) (KDM4C (TTP)): 0.3678; Array Heatmap value (peptide array signal) (BAZ2B): 0.3353; Array Heatmap value (peptide array signal) (ING4): 0.3713 |
